Results: BindingDB's records for doi:10.1021/jm9603274 (R. W. Johnson Pharmaceutical Research Institute, 1996)

Test: Inhibitory activity against thrombin induced platelet aggregation

| IC50 | SMILES |
| --- | --- |
| 23 nM | CN[C@H](Cc1ccccc1)C(=O)N1CCC[C@H]1C(=O)N[C@@H](CCCN=C(N)N)C(=O)c1nc2ccccc2s1 [RWJ-50353] |
| 23 nM | CN[C@H](Cc1ccccc1)C(=O)N1CCC[C@H]1C(=O)N[C@H](C=O)CCCN=C(N)N [1-(2-Methylamino-3-phenyl-propionyl)-pyrrolidine-2-carboxylic acid (1-formyl-4-guanidino-butyl)-amide] |
